Assay results reported in US7265155B2 (NBS Pharmaceuticals, Inc., priority 1996, dated 2007).
“And” between values parts separate entries of the source, which are not always exact repeats. Equal entries are not always repeated. “Also recorded” adds a separate entry of the source. Where two headings read alike, the source gives them in different places. Marks after values point to notes of the source that are not given here.

How the values were obtained:
amygdala-kindled rat = experiment: Anticonvulsant activity in the fully amygdala-kindled rat; type: in vivo; settings: oral dosing, sixty minutes before stimulation
Procedure: Isovaleramide was evaluated for its ability to block the expression of amygdala-kindled seizures in fully kindled rats. Isovaleramide was evaluated for its ability to block the kindled motor seizure (seizure scores of 4 and 5) and limbic behavioral seizures (seizure score between 1-3) as well as to affect changes in afterdischarge duration.
Adult, male Sprague-Dawley rats weighing at least 230 gr were implanted with a teflon-coated bipolar electrode sterotaxically placed in the anterior basolateral nucleus of the amygdala under ketamine and xylazine anesthesia. The electrode was implanted at the following coordinates with Bregma as zero: AP-2.2 mm, ML-4.7 mm, DV-8.7 mm. After a one-week recovery period, animals were kindled to Stage 5 behavioral seizures using a stimulus consisting of a 50 Hz, 1 sec train of 1 ms biphasic 150 uA pulses that were delivered once daily until 10 consecutive stage 5 seizures were evoked. Testing of isovaleramide was initiated after a one-week, stimulus-free period. On the compound test day, rats displaying a stage 5 seizure were divided into multiple treatment groups (i.e., vehicle control and isovaleramide treatment). Sixty minutes after oral dosing, individual rats received a 300 uA, 1 sec duration stimulation and their seizure score and afterdischarge duration recorded. Seizure score was classified according to Racine (Electroencephalogr. Clin. Neurophysiol. 32:281-294, (1972): stage 0: no abnormal behavior; stage 1: mouth or facial movements; stage 2: mouth or facial movements and head nodding; stage 3: stage 2 and forelimb clonus; stage 4: stage 3 and rearing; stage 5: stage 4 and falling. A score of 2-3 represents a focal seizure while a score of 4-5 represents secondarily generalized seizures. Afterdischarge duration was the total duration of the amygdala electroencephalogram spikes with an amplitude of at least twice the amplitude of the prestimulus recording and a frequency greater than 1/sec.

[1] = system: Frings audiogenic seizure-susceptible mouse; experiment: Frings audiogenic seizure-susceptible mouse model of epilepsy; type: in vivo; settings: for ED50: Mus musculus
Excerpt: One useful model is provided by the Frings audiogenic seizure-susceptible mouse, a model of reflex epilepsy. At the time of testing, individual mice are placed into a round Plexiglas chamber and exposed to a sound stimulus of 110 decibels, 11 kHz, for 20 seconds. Animals not displaying tonic hindlimb extensions were considered protected. In addition, the seizure score for each mouse can be recorded as: (1) running for less than 10 seconds; (2) running for greater than 10 seconds; (3) clonic activity of limbs and/or vibrissae; (4) forelimb extension/hindlimb flexion; and (5) hindlimb extension.
(§1) The average seizure score can be calculated for each group of mice employed in the dose-response study. At each dose, mice are also tested on a rotarod for testing of motor impairment (toxicity). Testing for motor impairment on the rotarod involves placing a mouse for a three-minute trial period on a one-inch diameter rod rotating at six revolutions per minute. If the mouse falls off of the rotating rod three times within the three-minute time period, it is considered a toxic response.

[2] = cited from earlier work
chronic spinalized rat = experiment: Spasticity scores elicited by a metal probe in chronic spinally transected rats; type: in vivo; settings: 300 mg/kg i.p.
Excerpt: In these studies, male albino Holtzman-derived rats (Harlan Sprague-Dawley Laboratories) weighing 270-530 grams were used as subjects. The animals were housed independently and had continuous access to food and water throughout the experiments.
All procedures were reviewed and approved by the Institutional Animal Care and Use Committee. Animals were anesthetized using a mixture of isoflurane and oxygen at a flow rate of 4 liters/minute.
The rats were then placed in a stereotaxic frame and anesthesia was maintained. An incision was made so that the paraspinal muscles could be retracted and a laminectomy performed between T6-T9. A one- to two-millimeter portion of the spinal cord was removed by evacuation and replaced with Gel foam to reduce bleeding, after which the incision was closed in layers.
Following the transection, rats were placed in a room in which the ambient temperature was raised to about 80° F. with a space heater to maintain body temperature. On the following morning post-surgery, the hindquarters of the spinalized rats were bathed and their urine expressed manually by applying pressure to their bladders. Experiments were conducted between 21 and 28 days after surgery. For the first two weeks, these rats were given 0.25 ml of the antibiotic Sulfatrim Pediatric Suspension orally to prevent bladder infection.
Within approximately two weeks, all animals regained bladder control and were no longer given antibiotic treatment. Advokat, Brain Res. 684: 8 (1995). […]
Initial assessment of spasticity was performed by the subjective scoring method of rating the resulting spasticity response elicited with an innocuous stimulus, i.e., a metal probe, that was pressed against the lower abdomen at four specific sites. The spastic reaction was evaluated for each of the four trials using a scale ranging from zero (no spastic response in all four trials) to four (a maximum, tonic-clonic reaction elicited in all four trials). […] These raw or normalized scores were analyzed with a one-way repeated measures ANOVA.

[3] = Rotarod motor impairment (toxicity) in the Frings mouse; type: in vivo; settings: Frings, mouse, in vivo
Procedure: as §1

Frings mouse = experiment: as above; type: in vivo
Procedure: as §1

CC(C)CC(N)=O [Isovaleramide, isovaleramide]
afterdischarge duration (amygdala-kindled rat): decreased
generalized seizure responses of fully kindled rats (amygdala-kindled rat): effective in reducing in a dose-dependent manner the generalized seizure responses; also recorded: effective in reducing, in a dose-dependent manner, the generalized seizure responses
mean seizure score (amygdala-kindled rat): decreased
Number Protected of Eight Mice Tested ([1]; 75 mg/kg i.p., 15 minutes): 1
Seizure Score ± S.E.M. ([1]; 75 mg/kg i.p., 15 minutes): 4.4 ± 0.6
Seizure Score ± S.E.M. ([1]; 100 mg/kg oral): 4.5 ± 0.5
Number Protected of Eight Mice Tested ([1]; 100 mg/kg oral, measured at 30 minutes): 1
Number Protected of Eight Mice Tested ([1]; 112.5 mg/kg i.p., 15 minutes): 2
Seizure Score ± S.E.M. ([1]; 112.5 mg/kg i.p., 15 minutes): 4.0 ± 0.6
Number Protected of Eight Mice Tested ([1]; 150 mg/kg i.p., 15 minutes): 6
Seizure Score ± S.E.M. ([1]; 150 mg/kg i.p., 15 minutes): 2.0 ± 0.6
Seizure Score ± S.E.M. ([1]; 200 mg/kg oral): 2.9 ± 0.8
Number Protected of Eight Mice Tested ([1]; 200 mg/kg oral, measured at 30 minutes): 4
Number Protected of Eight Mice Tested ([1]; 300 mg/kg i.p., 15 minutes): 8
Seizure Score ± S.E.M. ([1]; 300 mg/kg i.p., 15 minutes): 1.0 ± 0
Seizure Score ± S.E.M. ([1]; 300 mg/kg oral): 1.4 ± 0.5
Number Protected of Eight Mice Tested ([1]; 300 mg/kg oral, measured at 30 minutes): 7
Seizure Score ± S.E.M. ([1]; 600 mg/kg oral): 0.25 ± 0.25
Number Protected of Eight Mice Tested ([1]; 600 mg/kg oral, measured at 30 minutes): 8
Seizure Score ± S.E.M. ([1]; 1500 mg/kg oral): 0.6 ± 0.2
Number Protected of Eight Mice Tested ([1]; 1500 mg/kg oral, tested at 4 hours): 8^b
Seizure Score ± S.E.M. ([1]; 2000 mg/kg oral): 0 ± 0
Number Protected of Eight Mice Tested ([1]; 2000 mg/kg oral, tested at 4 hours, only seven mice tested): 7^b,d
ED50 ([1]; ip, 0.25 h, i.p., 15 minutes, read-out: ED50 for protection against tonic extension): 126 mg/kg
ED50 ([1]; oral, read-out: ED50 for protection): 186 mg/kg
time course of anticonvulsant activity ([1]; i.p.): noted as early as 15 minutes, but decreased substantially by two hours
seizure score, dose dependence ([1]; i.p., 15 minutes): dose-dependent reduction in seizure score
anticonvulsant activity when administered orally ([1]; oral): displayed anticonvulsant activity when administered orally
acute toxicity in vivo [2]: low acute toxicity in vivo
overt behavioral toxicity or motor impairment (chronic spinalized rat): No overt behavioral toxicity or motor impairment was observed
reduction of spasticity scores (chronic spinalized rat; 15, 30, 60 and 120 minutes post-administration): 45-65%
spasticity scores by the next day (chronic spinalized rat; 1440 minutes (24 hours)): essentially returned to baseline values
TD50 at 15 min ([3]; ip, 15 minutes, read-out: TD50 for rotarod impairment): 531 mg/kg
TD50 at 15 min ([3]; oral, read-out: TD50): 1010 mg/kg
Number Showing Toxicity of Eight Mice Tested (Frings mouse; 75 mg/kg i.p., 15 minutes): 0
Number Showing Toxicity of Eight Mice Tested (Frings mouse; 112.5 mg/kg i.p., 15 minutes): 0
Number Showing Toxicity of Eight Mice Tested (Frings mouse; 150 mg/kg i.p., 15 minutes): 0
Number Showing Toxicity of Eight Mice Tested (Frings mouse; 300 mg/kg i.p., 15 minutes): 1/8 and 1
Number Showing Toxicity of Eight Mice Tested (Frings mouse; 300 mg/kg oral, tested at 15 minutes): 1
Number Showing Toxicity of Eight Mice Tested (Frings mouse; 600 mg/kg i.p., 15 minutes): 4/8 and 4
Number Showing Toxicity of Eight Mice Tested (Frings mouse; 600 mg/kg oral, tested at 15 minutes): 1
Number Showing Toxicity of Eight Mice Tested (Frings mouse; 1000 mg/kg i.p., 15 minutes): 8/8 and 8
Number Showing Toxicity of Eight Mice Tested (Frings mouse; 1000 mg/kg oral, tested at 15 minutes): 5
Number Showing Toxicity of Eight Mice Tested (Frings mouse; 1500 mg/kg oral, tested at 15 minutes): 5
Number Showing Toxicity of Eight Mice Tested (Frings mouse; 2000 mg/kg oral, tested at 15 minutes, only seven mice tested): 7^d
rotarod performance in the Frings mouse (Frings mouse; doses up to 512 mg/kg i.p. 15 minutes before test): did not affect performance significantly
doses at which behavioral toxicity (inability to maintain balance on the rotarod) was displayed (Frings mouse; i.p.): > 300 mg/kg
doses at which no notable toxicity was observed (Frings mouse; i.p.): less than 300 mg/kg
